Ends that are not written are not given here.
Biological target: T1, PAI-1 (Homo sapiens, UniProt P05121)
T1 construct: made in house; host or cells: E. coli (vector pET3a)
Experiment: Thermal denaturation of peptide treated PAI-1
Conditions: FIG. 4
Excerpt: Circular dichroism (CD) spectra analysis (Strandberg et al., 1991) indicated similar secondary structural components for the PAI-1 mutants, as well as active and latent wild-type PAI-1.
(Lawrence et al., 1994c). […] As expected, active PAI-1 was much less thermally stable than latent PAI-1 or elastase cleaved PAI-1 (FIG. 4). […] This is precisely the behavior expected for a serpin with a peptide intercalated into β-sheet A (Carrell et al., 1991; Schulze et al., 1990; Bjork et al., 1992). […] If the 14 residue peptide were intercalated into β-sheet A, then the added length of the peptide bound to sheet A would be expected to increase the stability not decrease it.
Upon completion of peptide annealing, the incubation solution contained a mixture of annealed PAI-peptide, latent PAI, and excess peptide. For circular dichroism (CD) spectra, melting curves, and mass spectroscopy determinations, the excess peptide was removed. This was done by loading the mixture on a heparin-sepharose column which had been equilibrated with 0.05M sodium phosphate, 0.15M NaCl, 1 mM EDTA, 0.01% TWEEN-80, pH 6.6. Washing the column with this buffer removed the excess peptide. The PAI-peptide and latent PAI were eluted together with 0.05M Sodium phosphate, 1M NaCl, 1 mM EDTA, 0.01% TWEEN-80, pH 6.6. […] The absorbance at 280 nm was used to determine the final protein concentration. […]

T1 sequence (P05121 24-402): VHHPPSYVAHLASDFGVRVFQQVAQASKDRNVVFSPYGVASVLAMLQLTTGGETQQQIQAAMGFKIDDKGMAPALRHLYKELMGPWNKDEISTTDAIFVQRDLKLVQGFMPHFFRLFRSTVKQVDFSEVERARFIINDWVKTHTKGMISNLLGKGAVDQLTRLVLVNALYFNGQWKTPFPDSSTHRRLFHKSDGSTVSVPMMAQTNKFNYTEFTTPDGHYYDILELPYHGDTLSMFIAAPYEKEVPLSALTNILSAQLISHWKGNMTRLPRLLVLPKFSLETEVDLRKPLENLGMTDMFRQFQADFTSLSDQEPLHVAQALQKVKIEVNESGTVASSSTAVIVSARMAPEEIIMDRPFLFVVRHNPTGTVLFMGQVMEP

Substance: Ac-TVASSSTAVIVSAR [SEQ ID NO: 1, Thr-Val-Ala-Ser-Ser-Ser-Thr-Ala-Val-Ile-Val-Ser-Ala-Arg]
- thermal stability of peptide treated PAI-1: very similar to latent PAI-1

Source: patent US5639726A, “Peptide mediated enhancement of thrombolysis methods and compositions” (The Regents of the University of Michigan, priority 1994, dated 1997)
